Measured values reported in ChEMBL document CHEMBL1150715, “Puupehenone, a cytotoxic metabolite from a deep water marine sponge, Stronglyophora hartmani” (J Nat Prod, 1987).
≈ marks a conversion by molar mass, not a printed value.

Experiments:
HCT-8 = test: Cytotoxicity against human HCT8 cells; format: functional, cell-based
Candida albicans = test: Antifungal activity against Candida albicans; format: functional
P388 [1] = test: In vivo cytotoxicity against mouse P388 cells at 25 mg/kg administered daily for 9 days relative to control; format: functional
MCF7 = test: Cytotoxicity against human MCF7 cells; format: functional, cell-based
A549 = test: Cytotoxicity against human A549 cells; format: functional, cell-based
P388 [2] = test: Cytotoxicity against mouse P388 cells; format: functional, cell-based

In the case of `CC1(C)CCC[C@]2(C)[C@H]3C=C4C=C(O)C(=O)C=C4O[C@@]3(C)CC[C@@H]12` [PUUPEHENONE], the IC50 (HCT-8) is reported as 1 µg/mL (≈ 3.04 µM), the MIC (Candida albicans) is reported as 3 µg/mL (≈ 9.13 µM) and the T/C (P388 [1]) is reported as 119%. It also gave an IC50 (MCF7) of 0.1 µg/mL (≈ 0.304 µM), an IC50 (A549) of 0.1 µg/mL (≈ 0.304 µM) and an IC50 (P388 [2]) of 1 µg/mL (≈ 3.04 µM).
